Reference: publication PMC11067709 (Clinical and Translational Science, 2024)
Read-outs that look alike come from different tables or passages of the source. One block for each molecule: values may come before it.

Columns and labels:
[1] = Safety and tolerability, adverse events, Cohort 1; format: in vivo, healthy Korean male subjects
[2] = Safety and tolerability, adverse events, Cohort 3; format: in vivo, healthy Korean male subjects
[3] = cited from earlier work; for intra‐subject variability for the PK parameter (C max): NSAIDs, ref previously reported
[4] = Pharmacokinetic interaction study, fexuprazan and celecoxib; format: in vivo, healthy Korean male subjects; settings: 5 days; for T max,ss / Tmax: median [minimum–maximum]; for Tmax: T max,ss; for Vd/F: V ss/F
[5] = system: uptake or efflux transporters; settings: cited from earlier work
[6] = for AUCτ,ss / C max,ss / MR, metabolic ratio of fexuprazan (AUCτ,M14/AUCτ,fexuprazan) / V ss/F / t 1/2 / T max,ss: 5 days; for AUCτ,ss / C max,ss / MR, metabolic ratio of fexuprazan (AUCτ,M14/AUCτ,fexuprazan) / V ss/F / t 1/2: mean ± SD; for T max,ss: median [minimum–maximum]
[7] = cited from earlier work
transporters = settings: at the effective dose of 40 mg; cited from earlier work
[8] = Safety and tolerability, adverse events, Cohort 2; format: in vivo, healthy Korean male subjects
[9] = for T max: median [minimum–maximum]
CYP2D6 = settings: CYP isoform 2D6; cited from earlier work
CYP2C9 = settings: CYP isoform 2C9; cited from earlier work
clinical = settings: male, human, in vivo, po, 15 mg, T max,ss, 7 days, Arm E, median [minimum–maximum]
[10] = combination: fexuprazan 40 mg BID + celecoxib 200 mg BID, Arm B, mean ± SD
[11] = monotherapy: fexuprazan 40 mg BID, Arm B (Cohort 1), mean ± SD
[12] = combination: fexuprazan 40 mg BID + naproxen 500 mg BID, Arm D
[13] = monotherapy: fexuprazan 40 mg BID, Arm D (Cohort 2)
[14] = combination: fexuprazan 40 mg BID + meloxicam 15 mg QD, 7 days, Arm F, mean ± SD
[15] = monotherapy: fexuprazan 40 mg BID, 5 days, Arm F (Cohort 3), mean ± SD

AUCτ,ss [4, 10]: 570.2 ± 255.7 ng·h/mL
C max,ss [4, 10]: 71.3 ± 32.4 ng/mL
MR, metabolic ratio of fexuprazan (AUCτ,M14/AUCτ,fexuprazan) [4, 10]: 3.82 ± 2.72
V ss/F [4, 10]: 1136.7 ± 730.7 L
t 1/2 [4, 10]: 8.5 ± 0.8 h
T max,ss ([4]; combination: fexuprazan 40 mg BID + celecoxib 200 mg BID, Arm B): 2.5 [1.0–6.0] h
AUCτ,ss [4, 11]: 555.3 ± 239.6 ng·h/mL
C max,ss [4, 11]: 65.6 ± 30.1 ng/mL
MR, metabolic ratio of fexuprazan (AUCτ,M14/AUCτ,fexuprazan) [4, 11]: 3.56 ± 2.50
V ss/F [4, 11]: 1203.2 ± 788.6 L
t 1/2 [4, 11]: 8.7 ± 1.2 h
T max,ss ([4]; monotherapy: fexuprazan 40 mg BID, Arm B (Cohort 1)): 3.0 [1.0–6.0] h
AUCτ,ss [6, 12]: 728.7 ± 463.2 ng·h/mL
C max,ss [6, 12]: 89.2 ± 52.5 ng/mL
MR, metabolic ratio of fexuprazan (AUCτ,M14/AUCτ,fexuprazan) [6, 12]: 2.03 ± 1.25
V ss/F [6, 12]: 808.9 ± 503.9 L
t 1/2 [6, 12]: 7.8 ± 1.1 h
T max,ss [6, 12]: 3.0 [1.5–4.0] h
increase in systemic exposure ([6]; fexuprazan co-administered with naproxen vs fexuprazan alone): approximately 20%
AUCτ,ss [6, 13]: 591.7 ± 271.7 ng·h/mL
C max,ss [6, 13]: 72.5 ± 37.0 ng/mL
MR, metabolic ratio of fexuprazan (AUCτ,M14/AUCτ,fexuprazan) [6, 13]: 2.65 ± 1.22
V ss/F [6, 13]: 1028.6 ± 506.2 L
t 1/2 [6, 13]: 8.6 ± 0.9 h
T max,ss [6, 13]: 2.5 [1.0–6.0] h
AUCτ,ss [9, 14]: 674.7 ± 379.2 ng·h/mL
C max,ss [9, 14]: 83.2 ± 46.2 ng/mL
V ss/F [9, 14]: 1427.7 ± 1984.4 L
t 1/2 [9, 14]: 8.6 ± 2.1 h
T max ([9]; combination: fexuprazan 40 mg BID + meloxicam 15 mg QD, 7 days, Arm F): 2.5 [1.5–4.0] h
AUCτ,ss [9, 15]: 728.3 ± 403.5 ng·h/mL
C max,ss [9, 15]: 82.8 ± 45.5 ng/mL
MR, metabolic ratio of fexuprazan (AUCτ,M14/AUCτ,fexuprazan) [9, 15]: 2.50 ± 1.64
V ss/F [9, 15]: 1161.1 ± 1231.1 L
t 1/2 [9, 15]: 9.6 ± 2.2 h
T max ([9]; monotherapy: fexuprazan 40 mg BID, 5 days, Arm F (Cohort 3)): 2.5 [1.5–8.0] h
Structure (SMILES): CNCc1cn(S(=O)(=O)c2cccc(F)c2)c(-c2ccc(F)cc2F)c1OC [Fexuprazan]
percentage of subjects with AEs [1]: 33.3%
Summary of AEs: number of events [2]: eight
percentage of subjects with AEs [2]: 23.5%
elimination half‐life ([3]; fexuprazan): 7.5 to 9.5 h
substrate for uptake or efflux transporters [5]: not a substrate
multiple dose with established safety and tolerability ([7]; multiple doses for 7 days): up to 160 mg
single dose with established safety and tolerability ([7]; single dose): up to 320 mg
potential for inhibitory effects on transporters (transporters): low potential
Summary of AEs: number of events [8]: six
percentage of subjects with AEs [8]: 33.3%

AUC ([4]; male, human, plasma, po, 200 mg, AUCτ,ss, combination: celecoxib 200 mg BID + fexuprazan 40 mg BID, Arm A, mean ± SD): 8110 ± 2550 ng·h/mL
Cmax ([4]; male, human, plasma, po, 200 mg, C max,ss, monotherapy: celecoxib 200 mg BID, Arm A, mean ± SD): 1080 ± 315 ng/mL
Tmax ([4]; male, human, plasma, po, 200 mg, combination: celecoxib 200 mg BID + fexuprazan 40 mg BID, Arm A): 3 h
Tmax ([4]; male, human, plasma, po, 200 mg, monotherapy: celecoxib 200 mg BID, Arm A): 2.5 h
Vd/F ([4]; male, human, plasma, po, 200 mg, combination: celecoxib 200 mg BID + fexuprazan 40 mg BID, Arm A, mean ± SD): 358 ± 126 L
Vd/F ([4]; male, human, plasma, po, 200 mg, monotherapy: celecoxib 200 mg BID, Arm A, mean ± SD): 416 ± 235 L
half-life ([4]; male, human, plasma, po, 200 mg, t 1/2, combination: celecoxib 200 mg BID + fexuprazan 40 mg BID, Arm A, mean ± SD): 9.5 ± 3.3 h
half-life ([4]; male, human, plasma, po, 200 mg, t 1/2, monotherapy: celecoxib 200 mg BID, Arm A, mean ± SD): 9.4 ± 5 h
Structure (SMILES): Cc1ccc(-c2cc(C(F)(F)F)nn2-c2ccc(S(N)(=O)=O)cc2)cc1 [Celecoxib]
intra‐subject variability for the PK parameter (C max) [3]: 31.8%
elimination half‐life ([3]; celecoxib): 12.4 h
inhibitory effect of NSAIDs on the CYP isoform (CYP2D6): moderate inhibitory effects

Tmax (clinical; combination: meloxicam 15 mg QD + fexuprazan 40 mg BID): 4.5 h
Tmax (clinical; monotherapy: meloxicam 15 mg QD): 5 h
Structure (SMILES): Cc1cnc(NC(=O)C2=C(O)c3ccccc3S(=O)(=O)N2C)s1 [Meloxicam]
inhibitory effect of NSAIDs on the CYP isoform (CYP2C9): relatively weak inhibitor
intra‐subject variability for the PK parameter (C max) [3]: 9.8%

Structure (SMILES): COc1ccc2cc([C@H](C)C(=O)O)ccc2c1 [Naproxen]
intra‐subject variability for the PK parameter (C max) [3]: 8.4%
